# Source: patent publication US11628172B2, “Methods of treating chronic lymphocytic leukemia using 2-(2,6-dioxopiperidin-3-yl)-4-((2-fluoro-4-((3-morpholinoazetidin-1-yl)methyl)benzyl)amino)isoindoline-1,3-dione” (Celgene Corporation, priority 2019, dated 2023)
# Tested on: primary CLL cells from patient-derived blood (CD5+CD19+ tumor cells)
# Assay: Compound 1 in combination with obinutuzumab in B-cell CLL patient cells (ex vivo co-culture, flow cytometry, Caspase3)
# Assay type: cell-based, human
# Conditions: 144 h
# Method: Obinutuzumab (GA101) is a humanized, glycoengineered type 2 antibody targeted against CD20. […] The effect of treatment with Compound 1 in combination with obinutuzumab on the proliferation and survival of CLL B cells was assessed utilizing an ex vivo model where primary CLL cells from patient-derived blood were stimulated to proliferate with 10% fetal bovine serum (FBS), 5 ng/mL recombinant human interleukine-4 (rh IL-4), 10 ng/mL recombinant human interleukine-10 (rh IL-10) and co-cultured with fibroblast expressing surface CD154 (CD40L) in a 96 well plate format.
# Peripheral blood mononuclear cells (PBMCs) from CLL patients (Table 7) containing 52%-86% of CD5^+CD19^+ tumor cells were cultured at a density of 0.06-0.1×10^6 cells/well on a monolayer of CD154-expressing fibroblasts at a density of 0.09×10^6 cells/well in 96-well plates in RPMI 1640 medium supplemented with 10% FBS, 5 ng/mL rh IL-4 and 10 ng/mL rh IL-10. The cells were treated with vehicle control (0.1% DMSO) or increasing concentrations of Compound 1 ranging from 0.0001 to 1 μM and GA101 at concentrations ranging from 8 ng/mL to 5 ug/mL across all the different concentrations of Compound 1. After 144 h of treatment with both the agents, flow cytometric analysis was used to determine the number of tumor cells that were viable or apoptotic.
# The tumor cell count was assessed by staining the patient PBMCs in each condition with tumor cell surface markers CD5 & CD19 along with Live/Dead fixable dye to exclude the dead cells and followed by intracellular staining for Caspase3 antibody to identify the apoptotic cells and was measured by flow cytometry (Attune NxT, Thermo Fisher). The live tumor cell count for each condition was calculated by normalizing to the precision count beads added to each sample.
# The live tumor cell count was then normalized to the DMSO control (considered as 100% viable) to calculate the percentage of viable cells remaining after treatment. The normalized percentage of tumor cells was then represented as a heat map using Graph Pad Prism 8.0.0 to indicate the degree of tumor toxicity for each of the combinations (FIG. 1). Based on the data shown in FIG. 1, synergy/additivity calculations were performed using the HSA and Bliss Independence Model.
# For apoptosis analysis, the percentage of apoptosis combining both “early” (Caspase 3 positive and Live-Dead fixable dye negative) and “late” apoptosis (Caspase 3 and Live-Dead fixable dye positive) cell gates subtracting the baseline DMSO value was graphed using GraphPad Prism 8.0.0.0. The Ymax (maximal percentage of apoptosis achieved) values from apoptosis curves were calculated by performing a nonlinear regression curve fitting using log(agonist) vs. normalized response—Variable slope analysis and identifying the maximum value on GraphPad Prism 8.0.0 (Table 8).
substance,measurement,setting,value
"Obinutuzumab: humanized, glycoengineered type 2 antibody targeted against CD20",induction of apoptosis (in words),"CLL patient cells Pt 11-14, Table 8",induced apoptosis alone
same,Ymax of Pt 11 (%),"Pt 11, single agent (Cpd1 DRC with DMSO, or obinutuzumab alone), apoptosis (Caspase 3), DMSO baseline subtracted",27.98%
same,Ymax of Pt 12 (%),"Pt 12, single agent (Cpd1 DRC with DMSO, or obinutuzumab alone), apoptosis (Caspase 3), DMSO baseline subtracted",24.91%
same,Ymax of Pt 13 (%),"Pt 13, single agent (Cpd1 DRC with DMSO, or obinutuzumab alone), apoptosis (Caspase 3), DMSO baseline subtracted",35.87%
same,Ymax of Pt 14 (%),"Pt 14, single agent (Cpd1 DRC with DMSO, or obinutuzumab alone), apoptosis (Caspase 3), DMSO baseline subtracted",25.82%
